Data: ChEMBL document CHEMBL4219213, “The design, synthesis and structure-activity relationships associated with C28 amine-based betulinic acid derivatives as inhibitors of HIV-1 maturation” (Bioorg Med Chem Lett, 2018)

How the values were obtained:
cells = settings: Human immunodeficiency virus 1, subtype B NL4-3, MT2
in vivo [1] = settings: Sprague-Dawley, rat, po, 5 mg/kg
in vitro [2] = settings: human, MT2 cells
Description: Cytotoxicity against human MT2 cells

[3] = Oral bioavailability in Sprague-Dawley rat at 35 mg/kg via gavage up to 24 hrs by LC-MS/MS analysis; format: ADME, organism-based; settings: in vivo
Rattus norvegicus [4] = assay: Extrapolated AUC in Sprague-Dawley rat at 35 mg/kg, po via gavage up to 24 hrs by LC-MS/MS analysis; format: ADME, organism-based; settings: in vivo
Rattus norvegicus [5] = assay: Dose normalized AUC in Sprague-Dawley rat at 35 mg/kg, po via gavage up to 24 hrs by LC-MS/MS analysis; format: ADME, organism-based; settings: in vivo
[6] = Total AUC in Sprague-Dawley rat at 35 mg/kg, po via gavage up to 24 hrs by LC-MS/MS analysis; format: ADME, organism-based; parameters: dose 35 mg/kg, time AUCmax, route oral; settings: in vivo
[7] = AUClast in Sprague-Dawley rat at 35 mg/kg, po via gavage up to 24 hrs by LC-MS/MS analysis; format: ADME, organism-based; parameters: time < 24 hr, dose 35 mg/kg, route oral; settings: in vivo
[8] = Dose normalized plasma concentration in Sprague-Dawley rat at 35 mg/kg, po via gavage after 24 hrs by LC-MS/MS analysis; format: ADME, organism-based; settings: in vivo
[9] = Plasma concentration in Sprague-Dawley rat at 35 mg/kg, po via gavage after 24 hrs by LC-MS/MS analysis; format: ADME, organism-based
[10] = Tmax in Sprague-Dawley rat at 35 mg/kg, po via gavage by LC-MS/MS analysis; format: ADME, organism-based; settings: in vivo
[11] = Cmax in Sprague-Dawley rat at 35 mg/kg, po via gavage by LC-MS/MS analysis; format: ADME, organism-based; parameters: dose 35 mg/kg, route oral; settings: in vivo
[12] = Oral bioavailability in Sprague-Dawley rat at 11.8 mg/kg via gavage up to 24 hrs by LC-MS/MS analysis; format: ADME, organism-based; settings: in vivo
Rattus norvegicus [13] = assay: Extrapolated AUC in Sprague-Dawley rat at 11.8 mg/kg, po via gavage up to 24 hrs by LC-MS/MS analysis; format: ADME, organism-based; settings: in vivo
Rattus norvegicus [14] = assay: Dose normalized AUC in Sprague-Dawley rat at 11.8 mg/kg, po via gavage up to 24 hrs by LC-MS/MS analysis; format: ADME, organism-based; settings: in vivo
[15] = Cmax in Sprague-Dawley rat at 11.8 mg/kg, po via gavage by LC-MS/MS analysis; format: ADME, organism-based; parameters: dose 11.8 mg/kg, route oral; settings: in vivo
[16] = Tmax in Sprague-Dawley rat at 11.8 mg/kg, po via gavage by LC-MS/MS analysis; format: ADME, organism-based; settings: in vivo
[17] = Plasma concentration in Sprague-Dawley rat at 11.8 mg/kg, po via gavage after 24 hrs by LC-MS/MS analysis; format: ADME, organism-based
[18] = Dose normalized plasma concentration in Sprague-Dawley rat at 11.8 mg/kg, po via gavage after 24 hrs by LC-MS/MS analysis; format: ADME, organism-based; settings: in vivo
[19] = AUClast in Sprague-Dawley rat at 11.8 mg/kg, po via gavage up to 24 hrs by LC-MS/MS analysis; format: ADME, organism-based; parameters: dose 11.8 mg/kg, time < 24 hr, route oral; settings: in vivo
[20] = Total AUC in Sprague-Dawley rat at 11.8 mg/kg, po via gavage up to 24 hrs by LC-MS/MS analysis; format: ADME, organism-based; parameters: dose 11.8 mg/kg, time AUCmax, route oral; settings: in vivo
[21] = Cmax in Sprague-Dawley rat at 124 mg/kg, po via gavage by LC-MS/MS analysis; format: ADME, organism-based; parameters: dose 124 mg/kg, route oral; settings: in vivo
[22] = Tmax in Sprague-Dawley rat at 124 mg/kg, po via gavage by LC-MS/MS analysis; format: ADME, organism-based; settings: in vivo
[23] = Plasma concentration in Sprague-Dawley rat at 124 mg/kg, po via gavage after 24 hrs by LC-MS/MS analysis; format: ADME, organism-based
[24] = Dose normalized plasma concentration in Sprague-Dawley rat at 124 mg/kg, po via gavage after 24 hrs by LC-MS/MS analysis; format: ADME, organism-based; settings: in vivo
[25] = AUClast in Sprague-Dawley rat at 124 mg/kg, po via gavage up to 24 hrs by LC-MS/MS analysis; format: ADME, organism-based; parameters: time < 24 hr, dose 124 mg/kg, route oral; settings: in vivo
[26] = Total AUC in Sprague-Dawley rat at 124 mg/kg, po via gavage up to 24 hrs by LC-MS/MS analysis; format: ADME, organism-based; parameters: dose 124 mg/kg, time AUCmax, route oral; settings: in vivo
Rattus norvegicus [27] = assay: Dose normalized AUC in Sprague-Dawley rat at 124 mg/kg, po via gavage up to 24 hrs by LC-MS/MS analysis; format: ADME, organism-based; settings: in vivo
Rattus norvegicus [28] = assay: Extrapolated AUC in Sprague-Dawley rat at 124 mg/kg, po via gavage up to 24 hrs by LC-MS/MS analysis; format: ADME, organism-based; settings: in vivo
[29] = Oral bioavailability in Sprague-Dawley rat at 124 mg/kg via gavage up to 24 hrs by LC-MS/MS analysis; format: ADME, organism-based; settings: in vivo
[30] = Cmax in Sprague-Dawley rat at 5 mg/kg, po via gavage by LC-MS/MS analysis; format: ADME, organism-based; parameters: dose 5 mg/kg, route oral; settings: in vivo
[31] = Tmax in Sprague-Dawley rat at 5 mg/kg, po via gavage by LC-MS/MS analysis; format: ADME, organism-based; settings: in vivo
[32] = Dose normalized plasma concentration in Sprague-Dawley rat at 5 mg/kg, po via gavage after 24 hrs by LC-MS/MS analysis; format: ADME, organism-based; settings: in vivo
[33] = AUClast in Sprague-Dawley rat at 5 mg/kg, po via gavage up to 24 hrs by LC-MS/MS analysis; format: ADME, organism-based; parameters: time < 24 hr, dose 5 mg/kg, route oral; settings: in vivo
[34] = Total AUC in Sprague-Dawley rat at 5 mg/kg, po via gavage up to 24 hrs by LC-MS/MS analysis; format: ADME, organism-based; parameters: dose 5 mg/kg, time AUCmax, route oral; settings: in vivo
Rattus norvegicus [35] = assay: Dose normalized AUC in Sprague-Dawley rat at 5 mg/kg, po via gavage up to 24 hrs by LC-MS/MS analysis; format: ADME, organism-based; settings: in vivo
Rattus norvegicus [36] = assay: Extrapolated AUC in Sprague-Dawley rat at 5 mg/kg, po via gavage up to 24 hrs by LC-MS/MS analysis; format: ADME, organism-based; settings: in vivo
[37] = Oral bioavailability in Sprague-Dawley rat at 5 mg/kg via gavage up to 24 hrs by LC-MS/MS analysis; format: ADME, organism-based; settings: in vivo
in vivo [38] = settings: Sprague-Dawley, rat, plasma, po, 5 mg/kg
Description: Plasma concentration in Sprague-Dawley rat at 5 mg/kg, po via gavage after 24 hrs by LC-MS/MS analysis

in vitro [39] = settings: rat, liver microsomes
Description: Half life in rat liver microsomes at 0.5 uM in presence of NADPH by LC-MS/MS method

in vitro [40] = settings: human, liver microsomes
Description: Half life in human liver microsomes at 0.5 uM in presence of NADPH by LC-MS/MS method

in vitro [41] = settings: mouse, liver microsomes
Description: Half life in mouse liver microsomes at 0.5 uM in presence of NADPH by LC-MS/MS method

in vivo [42] = settings: Sprague-Dawley, rat, po, 5 mg/kg; remark: listed apart in the source

C=C(C)[C@@H]1CC[C@]2(CNCCc3ccc(S(N)(=O)=O)cc3)CC[C@]3(C)[C@H](CC[C@@H]4[C@@]5(C)CC=C(c6ccc(C(=O)O)cc6)C(C)(C)[C@@H]5CC[C@]43C)[C@@H]12
IC50 (cells): 16 nM
AUC(0-t) at 6 h (in vivo [1]): 0.288 µM·h
CC50 (in vitro [2]): 2400 nM

C=C(C)[C@@H]1CC[C@]2(CNCCCN(C)C)CC[C@]3(C)[C@H](CC[C@@H]4[C@@]5(C)CC=C(c6ccc(C(=O)O)cc6)C(C)(C)[C@@H]5CC[C@]43C)[C@@H]12
IC50 (cells): 200 nM
AUC(0-t) at 6 h (in vivo [1]): 0.01 µM·h
CC50 (in vitro [2]): 4500 nM

C=C(C)[C@@H]1CC[C@]2(CNCCCN3CCS(=O)(=O)CC3)CC[C@]3(C)[C@H](CC[C@@H]4[C@@]5(C)CC=C(c6ccc(C(=O)O)cc6)C(C)(C)[C@@H]5CC[C@]43C)[C@@H]12.Cl
bioavailability [3]: 7%
%AUCextra (Rattus norvegicus [4]): 14%
AUC/dose (Rattus norvegicus [5]): 378 µM·h
AUC at 24 h [6]: 13.2 µM·h
AUC(0-t) at 24 h [7]: 11.4 µM·h
Cp/dose [8]: 6.7 nM
concentration at 24 h [9]: 234 nM
Tmax [10]: 5.3 h
Cmax [11]: 451 nM
bioavailability [12]: 8%
%AUCextra (Rattus norvegicus [13]): 2%
AUC/dose (Rattus norvegicus [14]): 461 µM·h
Cmax [15]: 285 nM
Tmax [16]: 4.7 h
concentration at 24 h [17]: 91 nM
Cp/dose [18]: 7.7 nM
AUC(0-t) at 24 h [19]: 5.31 µM·h
AUC at 24 h [20]: 5.44 µM·h
Cmax [21]: 697 nM
Tmax [22]: 17.3 h
concentration at 24 h [23]: 635 nM
Cp/dose [24]: 5.1 nM
AUC(0-t) at 24 h [25]: 23.2 µM·h
AUC at 24 h [26]: 29.1 µM·h
AUC/dose (Rattus norvegicus [27]): 235 µM·h
%AUCextra (Rattus norvegicus [28]): 17%
bioavailability [29]: 4%
Cmax [30]: 232 nM
Tmax [31]: 6.7 h
Cp/dose [32]: 6.8 nM
AUC(0-t) at 24 h [33]: 2.99 µM·h
AUC at 24 h [34]: 3.25 µM·h
AUC/dose (Rattus norvegicus [35]): 650 µM·h
%AUCextra (Rattus norvegicus [36]): 8%
bioavailability [37]: 12%
concentration at 24 h (in vivo [38]): 34 nM

C=C(C)[C@@H]1CC[C@]2(CN(CCCN3CCS(=O)(=O)CC3)C3CC3)CC[C@]3(C)[C@H](CC[C@@H]4[C@@]5(C)CC=C(c6ccc(C(=O)O)cc6)C(C)(C)[C@@H]5CC[C@]43C)[C@@H]12
IC50 (cells): 43 nM
CC50 (in vitro [2]): 7000 nM
half-life at 0.5 µM (in vitro [39]): > 2 h
half-life at 0.5 µM (in vitro [40]): > 2 h
half-life at 0.5 µM (in vitro [41]): > 2 h

C=C(C)[C@@H]1CC[C@]2(CNC(=O)CNC)CC[C@]3(C)[C@H](CC[C@@H]4[C@@]5(C)CC=C(c6ccc(C(=O)O)cc6)C(C)(C)[C@@H]5CC[C@]43C)[C@@H]12
IC50 (cells): 27 nM
AUC(0-t) at 6 h (in vivo [1]): 0.54 µM·h
CC50 (in vitro [2]): 16000 nM

C=C(C)[C@@H]1CC[C@]2(CNCCCN(C)c3ccccc3)CC[C@]3(C)[C@H](CC[C@@H]4[C@@]5(C)CC=C(c6ccc(C(=O)O)cc6)C(C)(C)[C@@H]5CC[C@]43C)[C@@H]12
IC50 (cells): 60 nM
AUC(0-t) at 6 h (in vivo [1]): 0.962 µM·h
CC50 (in vitro [2]): 11000 nM
half-life at 0.5 µM (in vitro [39]): > 2 h
half-life at 0.5 µM (in vitro [40]): > 2 h
half-life at 0.5 µM (in vitro [41]): > 2 h

C=C(C)[C@@H]1CC[C@]2(CNCCCN3CCCC3=O)CC[C@]3(C)[C@H](CC[C@@H]4[C@@]5(C)CC=C(c6ccc(C(=O)O)cc6)C(C)(C)[C@@H]5CC[C@]43C)[C@@H]12
IC50 (cells): 9.9 nM
AUC(0-t) at 6 h (in vivo [1]): 1.04 µM·h
CC50 (in vitro [2]): 5800 nM

C=C(C)[C@@H]1CC[C@]2(CNCCN(C)C)CC[C@]3(C)[C@H](CC[C@@H]4[C@@]5(C)CC=C(c6ccc(C(=O)O)cc6)C(C)(C)[C@@H]5CC[C@]43C)[C@@H]12
IC50 (cells): 21 nM
AUC(0-t) at 24 h (in vivo [42]): 1.28 µM·h
CC50 (in vitro [2]): 1200 nM
half-life at 0.5 µM (in vitro [39]): > 2 h
half-life at 0.5 µM (in vitro [40]): > 2 h
half-life at 0.5 µM (in vitro [41]): > 2 h

C=C(C)[C@@H]1CC[C@]2(CNCCCN)CC[C@]3(C)[C@H](CC[C@@H]4[C@@]5(C)CC=C(c6ccc(C(=O)O)cc6)C(C)(C)[C@@H]5CC[C@]43C)[C@@H]12
IC50 (cells): 40 nM
CC50 (in vitro [2]): 120 nM
half-life at 0.5 µM (in vitro [39]): > 2 h
half-life at 0.5 µM (in vitro [40]): > 2 h
half-life at 0.5 µM (in vitro [41]): > 2 h
